# Results: BindingDB's records for patent US12128028 (Metrion Biosciences, 2024)
# pIC50: −log10 of the molar value.
# Molecular target: Potassium voltage-gated channel subfamily A member 3 (Homo sapiens, UniProt P22001)
# Assay: Biological Assay
# Description: The QPatch HT system (Sophion Bioscience A/S, Denmark) was used with the conventional whole-cell configuration. This system is an automated, chip-based planar patch clamp device allowing for up to 48 parallel independent experiments in one experimental assay run. Cells are added to each well and drawn by suction onto a small aperture to obtain a Gigaohm seal between the cell membrane and treated silicon surface, and whole-cell recordings initiated after access is achieved by suction and/or voltage pulses. The QPatch HT uses static perfusion, whereby a small volume of recording solution or drug is added to a reservoir on the chip and the solution perfuses across the cell through quartz-lined microfluidic channels; this solution is removed by capillary action when the next sample application is made.CHO-Kv1.3 cells were prepared for experiments by dissociation from T175 cell culture flasks using trypsin-EDTA (0.05%), cells were kept in serum free media in the cell hotel on board the QPatch HT. These cells were sampled, washed and re-suspended in extracellular recording solution by the QPatch HT immediately before application to the recording well site on the chip. Experiments were performed using the following solutions; extracellular solution contained (in mM); 150 NaCl, 10 KCl, 1 MgCl2, 3 CaCl2), 10 Glucose and 10 HEPES (pH 7.4, NaOH) and intracellular solution contained (in mM); 20 KCl, 120 KF, 10 HEPES, 10 EGTA, 5 ATP (pH 7.2, KOH).The potency (Inhibitory Concentration 50%, IC50) of synthesized compounds against Kv1.3 was determined from concentration-response relationships established by cumulatively applying four escalating concentrations of test compound to an individual cell and a minimum of N≥3 individual cells of data per compound were used to generate the IC50 value.
# Sequence of Potassium voltage-gated channel subfamily A member 3 (P22001 whole entry): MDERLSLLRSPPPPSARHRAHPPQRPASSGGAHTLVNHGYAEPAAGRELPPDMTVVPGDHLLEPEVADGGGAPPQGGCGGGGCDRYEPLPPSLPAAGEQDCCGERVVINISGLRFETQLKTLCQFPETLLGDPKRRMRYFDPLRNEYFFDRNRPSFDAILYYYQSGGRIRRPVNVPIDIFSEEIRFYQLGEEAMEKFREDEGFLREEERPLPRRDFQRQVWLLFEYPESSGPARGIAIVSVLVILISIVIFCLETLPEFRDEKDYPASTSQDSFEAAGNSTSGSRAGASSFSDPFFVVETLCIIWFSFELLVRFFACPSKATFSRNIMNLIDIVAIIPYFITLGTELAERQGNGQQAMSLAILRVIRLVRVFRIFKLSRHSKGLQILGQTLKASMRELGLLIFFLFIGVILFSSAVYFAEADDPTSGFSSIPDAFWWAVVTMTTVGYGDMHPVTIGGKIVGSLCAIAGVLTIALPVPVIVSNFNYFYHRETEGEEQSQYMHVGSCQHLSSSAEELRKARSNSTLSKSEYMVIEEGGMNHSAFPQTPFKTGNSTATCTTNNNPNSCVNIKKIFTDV
row,SMILES,pIC50
1,"CC1(C)N=C(C23CC(N(Cc4ccc(Cl)c(F)c4)S(=O)(=O)c4ccccc4)(C2)C3)N[C@H]1C(=O)N1CCC[C@H](C(F)(F)F)C1 (racemic) [US12128028, Example 173]",6.99
2,"CC[C@@H]1N=C(C23CC(N(Cc4ccc(C(F)(F)F)cc4)S(=O)(=O)c4ccc(F)cc4)(C2)C3)N[C@@]1(C)C(=O)NCCC(F)(F)F (racemic) [US12128028, Example 235]",6.67
3,"CC[C@H]1N=C(C23CC(N(Cc4ccc(C(F)(F)F)cc4)S(=O)(=O)c4ccc(F)cc4)(C2)C3)N[C@@]1(C)C(=O)NCCC(F)(F)F (racemic) [US12128028, Example 259]",6.44
